Laboratory results taken from the supplement of paper PMC8671470.

How the values were obtained:
Assay in all cases: cell viability (% survival relative to DMSO control); higher = less cytotoxic
Details in all cases: 72 h
MV4-11 = test system: MV4-11
Protocol: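 8x8 drug-combination matrices (0–5000 nM; rosiglitazone and lestaurtinib 0–1000 nM) were run in MV4-11 cells for 72 h with CellTiter-Glo read-out. Survival is normalised to DMSO and 10 µM bortezomib and clipped at 100%.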

Mono-Mac-6 = test system: Mono-Mac-6
Protocol: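 8x8 drug-combination matrices (0–5000 nM; rosiglitazone and lestaurtinib 0–1000 nM) were run in Mono-Mac-6 cells for 72 h with CellTiter-Glo read-out. Survival is normalised to DMSO and 10 µM bortezomib and clipped at 100%.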

HL-60 = test system: HL-60
Protocol: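 8x8 drug-combination matrices (0-5000 nM; rosiglitazone and lestaurtinib 0-1000 nM) were run in HL-60 cells for 72 h with a CellTiter-Glo read-out. Survival is normalised to DMSO and 10 µM bortezomib and clipped at 100%. Bliss synergy was analysed in SynergyFinder.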

CCn1c(=Cc2cccc[n+]2CC)sc(=C2Sc3ccccc3N2C)c1=O [MKT 077] + CN(C)CCNC(=O)c1cccn2c(=O)c3cc4ccccc4cc3nc12 [Bmh-21]
cell viability [%]
Details | drug1 concentration 5 nM | drug1 concentration 10 nM | drug1 concentration 50 nM | drug1 concentration 100 nM | drug1 concentration 500 nM | drug1 concentration 1000 nM | drug1 concentration 5000 nM
HL-60, drug2 concentration 5 nM | 72.8 | > 100 | > 100 | > 100 | > 100 | > 100 | 82
HL-60, drug2 concentration 10 nM | 97.1 | 92.4 | > 100 | > 100 | 62.4 | > 100 | > 100
HL-60, drug2 concentration 50 nM | > 100 | 89.5 | > 100 | > 100 | 87.1 | > 100 | > 100
HL-60, drug2 concentration 100 nM | > 100 | > 100 | > 100 | > 100 | 85.5 | > 100 | > 100
HL-60, drug2 concentration 500 nM | 58.2 | 61.1 | 40.5 | 44.1 | 86 | 41.3 | 84.4
HL-60, drug2 concentration 1000 nM | 31.2 | 58.3 | 48.1 | 66.9 | 18.6 | 34.4 | 54.3
HL-60, drug2 concentration 5000 nM | 16.4 | 30.1 | -2.48 | 43.2 | 29.9 | 7.94 | 52
MV4-11, drug2 concentration 5 nM | 89 | 81.4 | > 100 | 87.9 | 90.8 | > 100 | 78.7
MV4-11, drug2 concentration 10 nM | 97.1 | > 100 | > 100 | 99.1 | 86 | 71 | > 100
MV4-11, drug2 concentration 50 nM | 86.2 | 86.7 | 88.4 | > 100 | 84.5 | > 100 | > 100
MV4-11, drug2 concentration 100 nM | > 100 | > 100 | 92.3 | 95.9 | 89.4 | 69.7 | > 100
MV4-11, drug2 concentration 500 nM | 70.6 | 88.8 | 78.3 | 87.8 | > 100 | 86.7 | 84.5
MV4-11, drug2 concentration 1000 nM | 87.2 | 46.6 | > 100 | 89.9 | 74.8 | 60.5 | 64.2
MV4-11, drug2 concentration 5000 nM | 31.1 | 35.2 | 31.4 | 63.2 | 25.9 | 24.1 | 37.5
Mono-Mac-6, drug2 concentration 5 nM | 93.5 | > 100 | 99.6 | 94.6 | 99.8 | > 100 | > 100
Mono-Mac-6, drug2 concentration 10 nM | > 100 | > 100 | > 100 | 90.1 | > 100 | 78.2 | > 100
Mono-Mac-6, drug2 concentration 50 nM | 95.8 | 86.2 | 82.7 | > 100 | 87.1 | > 100 | 99
Mono-Mac-6, drug2 concentration 100 nM | 91.6 | > 100 | > 100 | 99.7 | > 100 | > 100 | > 100
Mono-Mac-6, drug2 concentration 500 nM | 90.4 | 93.3 | 82.1 | 87.7 | 84.3 | 62.8 | 73.5
Mono-Mac-6, drug2 concentration 1000 nM | 76.7 | 77.5 | > 100 | 72.8 | 76.2 | 74.1 | 56.9
Mono-Mac-6, drug2 concentration 5000 nM | 46 | 58.2 | 59.9 | 64.1 | 65.1 | 58.6 | 24.6

O=C(O)CC[N+](=O)[O-] [3-nitropropionic acid] + CCn1c(=Cc2cccc[n+]2CC)sc(=C2Sc3ccccc3N2C)c1=O [MKT 077]
cell viability [%]
Details | drug1 concentration 5 nM | drug1 concentration 10 nM | drug1 concentration 50 nM | drug1 concentration 100 nM | drug1 concentration 500 nM | drug1 concentration 1000 nM | drug1 concentration 5000 nM
HL-60, drug2 concentration 5 nM | 95.5 | 92.9 | 74.5 | > 100 | > 100 | > 100 | 88.8
HL-60, drug2 concentration 10 nM | > 100 | > 100 | > 100 | > 100 | > 100 | > 100 | > 100
HL-60, drug2 concentration 50 nM | > 100 | 92.7 | > 100 | 98.3 | 97.7 | > 100 | > 100
HL-60, drug2 concentration 100 nM | 91.2 | 83.3 | 56.4 | > 100 | 99.2 | 50.3 | > 100
HL-60, drug2 concentration 500 nM | 99.2 | 84.2 | > 100 | > 100 | > 100 | 84.7 | 86.6
HL-60, drug2 concentration 1000 nM | > 100 | > 100 | > 100 | > 100 | 84 | > 100 | 67.3
HL-60, drug2 concentration 5000 nM | > 100 | 79.2 | > 100 | 84.7 | > 100 | > 100 | 99.6
MV4-11, drug2 concentration 5 nM | 89.1 | 97 | > 100 | 86.8 | > 100 | > 100 | 75.6
MV4-11, drug2 concentration 10 nM | 89.2 | > 100 | > 100 | 83.7 | 98.1 | > 100 | > 100
MV4-11, drug2 concentration 50 nM | > 100 | > 100 | > 100 | 84.1 | > 100 | 81.3 | > 100
MV4-11, drug2 concentration 100 nM | 97.3 | > 100 | 93.7 | 84.3 | > 100 | 88.2 | 68.4
MV4-11, drug2 concentration 500 nM | > 100 | 96 | 92.7 | > 100 | 94.3 | 91.4 | 86.1
MV4-11, drug2 concentration 1000 nM | 89.6 | 97.4 | 92.8 | > 100 | 97.6 | > 100 | 65.1
MV4-11, drug2 concentration 5000 nM | 72.5 | 80 | 96.6 | > 100 | 87.2 | 97.2 | 79.8
Mono-Mac-6, drug2 concentration 5 nM | > 100 | 98.1 | > 100 | 90.2 | > 100 | > 100 | 90.3
Mono-Mac-6, drug2 concentration 10 nM | > 100 | > 100 | > 100 | > 100 | > 100 | > 100 | > 100
Mono-Mac-6, drug2 concentration 50 nM | > 100 | > 100 | > 100 | 91 | 96.5 | 86 | > 100
Mono-Mac-6, drug2 concentration 100 nM | 84.8 | > 100 | > 100 | > 100 | > 100 | > 100 | 76.8
Mono-Mac-6, drug2 concentration 500 nM | 99.9 | 82.8 | > 100 | > 100 | > 100 | 84.4 | > 100
Mono-Mac-6, drug2 concentration 1000 nM | > 100 | > 100 | > 100 | > 100 | 96.7 | 87 | 82.4
Mono-Mac-6, drug2 concentration 5000 nM | 79.1 | 74.4 | > 100 | > 100 | 63.8 | > 100 | > 100
